Experimental data: PubChem BioAssay AID256 (DTP/NCI, 2004)
Where “and” joins values, the source holds several entries; their conditions need not be identical. Equal values may be shown once. Toxic doses and inconclusive results are not listed. How the source made its calls: active means survival T/C of 150% or more; inactive means T/C below 125% in these data.

Test system: CD2F1 mice, L1210 leukemia ip, survival T/C
Experiment: NCI In Vivo Anticancer Drug Screen. Data for tumor model L1210 Leukemia (intraperitoneal) in CD2F1 (CDF1) mice
Settings: endpoint: mean survival time, higher = longer survival
Method in brief: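 Transplantable tumor in mice; compound-treated vs vehicle-treated groups. Read-out = treated/control ratio of the measured endpoint.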

[1] = dose: 100.0 mg/kg/injection, schedule: Q01DX009 (ip), vehicle: saline
[2] = dose: 200.0 mg/kg/injection, schedule: Q01DX009 (ip), vehicle: saline
[3] = dose: 50.0 mg/kg/injection, schedule: Q04DX002 (ip), vehicle: saline with Tween-80
[4] = dose: 100.0 mg/kg/injection, schedule: Q04DX002 (ip), vehicle: saline with Tween-80
[5] = dose: 200.0 mg/kg/injection, schedule: Q04DX002 (ip), vehicle: saline with Tween-80
[6] = dose: 100.0 mg/kg/injection, schedule: Q01DX009 (ip), vehicle: saline with Tween-80
[7] = dose: 200.0 mg/kg/injection, schedule: Q01DX009 (ip), vehicle: saline with Tween-80
[8] = dose: 400.0 mg/kg/injection, schedule: Q01DX009 (ip), vehicle: saline with Tween-80
[9] = dose: 50.0 mg/kg/injection, schedule: Q01DX009 (ip), vehicle: saline with Tween-80
[10] = dose: 0.5 mg/kg/injection, schedule: Q04DX003 (ip), vehicle: saline
[11] = dose: 1.0 mg/kg/injection, schedule: Q04DX003 (ip), vehicle: saline
[12] = dose: 100.0 mg/kg/injection, schedule: Q01DX001 (ip), vehicle: saline
[13] = dose: 100.0 mg/kg/injection, schedule: Q04DX003 (ip), vehicle: saline with Tween-80
[14] = dose: 200.0 mg/kg/injection, schedule: Q01DX001 (ip), vehicle: saline
[15] = dose: 200.0 mg/kg/injection, schedule: Q04DX003 (ip), vehicle: saline with Tween-80
[16] = dose: 400.0 mg/kg/injection, schedule: Q01DX001 (ip), vehicle: saline
[17] = dose: 400.0 mg/kg/injection, schedule: Q04DX003 (ip), vehicle: saline with Tween-80
[18] = dose: 75.0 mg/kg/injection, schedule: Q01DX001 (ip), vehicle: other
[19] = dose: 400.0 mg/kg/injection, schedule: Q04DX002 (ip), vehicle: saline with Tween-80
[20] = dose: 100.0 mg/kg/injection, schedule: Q04DX003 (ip), vehicle: saline
[21] = dose: 200.0 mg/kg/injection, schedule: Q04DX003 (ip), vehicle: saline
[22] = dose: 400.0 mg/kg/injection, schedule: Q04DX003 (ip), vehicle: saline
[23] = dose: 100.0 mg/kg/injection, schedule: Q01DX001 (ip), vehicle: saline with Tween-80

Measured: T/C

O=c1[nH]c(=O)c2nc(-c3cccnc3)cnc2[nH]1
inactive: dose: 12.5 mg/kg/injection, schedule: Q01DX009 (ip), vehicle: saline 98 % of control and 103 % of control | dose: 25.0 mg/kg/injection, schedule: Q01DX009 (ip), vehicle: saline 101 % of control and 102 % of control | dose: 50.0 mg/kg/injection, schedule: Q01DX009 (ip), vehicle: saline 93 % of control and 104 % of control | [1] 98 % of control and 110 % of control | [2] 101 % of control and 110 % of control | dose: 400.0 mg/kg/injection, schedule: Q01DX009 (ip), vehicle: saline 114 % of control and 102 % of control

Cc1ccc(Sc2ncnc3c2ncn3C2OC(CO)C(O)C2O)cc1 (stereo not drawn)
inactive: dose: 12.5 mg/kg/injection, schedule: Q01DX005 (ip), vehicle: distilled water + Tween-80 96 % of control | dose: 25.0 mg/kg/injection, schedule: Q01DX005 (ip), vehicle: distilled water + Tween-80 90 % of control | dose: 50.0 mg/kg/injection, schedule: Q01DX005 (ip), vehicle: distilled water + Tween-80 94 % of control | dose: 100.0 mg/kg/injection, schedule: Q01DX005 (ip), vehicle: distilled water + Tween-80 90 % of control | dose: 200.0 mg/kg/injection, schedule: Q01DX005 (ip), vehicle: distilled water + Tween-80 94 % of control

Cc1cc(C)c(NC2=NCCS2)cc1C
inactive: dose: 25.0 mg/kg/injection, schedule: Q04DX002 (ip), vehicle: saline with Tween-80 101 % of control | [3] 104 % of control | [4] 101 % of control

CC(=O)C(C(=N)C#N)C(C)=O
inactive: [3] 101 % of control | [4] 89 % of control | [5] 89 % of control

O=C(Nc1ccc(Cl)cc1)Nc1ccccc1F
inactive: [6] 97 % of control | [7] 103 % of control | [8] 105 % of control

NC(=S)Nc1ccc(C23CCC(CC2)CC3)cc1
inactive: [9] 101 % of control | [6] 101 % of control | [7] 109 % of control

CCCCCCCCCCCC(C)CC(CN)C(=O)OCC (stereo not drawn)
inactive: dose: 100.0 mg/kg/injection, schedule: Q04DX002 (ip), vehicle: saline 92 % of control | dose: 200.0 mg/kg/injection, schedule: Q04DX002 (ip), vehicle: saline 100 % of control | dose: 400.0 mg/kg/injection, schedule: Q04DX002 (ip), vehicle: saline 100 % of control

CC(C)(C)C1CCS(=O)(=O)CC1.[Cl][Hg][Cl]
inactive: dose: 0.25 mg/kg/injection, schedule: Q04DX003 (ip), vehicle: saline 104 % of control | [10] 94 % of control | [11] 100 % of control

COc1cc(OC)c(NC(=O)Nc2ccc(Cl)c(C(F)(F)F)c2)cc1Cl
inactive: [9] 93 % of control | [6] 93 % of control | [7] 93 % of control

CCOC(=O)C1CNC(=O)C1=O (stereo not drawn)
inactive: [12] 106 % of control | [13] 100 % of control | [14] 110 % of control | [15] 101 % of control | [16] 106 % of control | [17] 95 % of control

c1ccc(N=Nc2n[nH]c3ccccc23)cc1
inactive: [13] 95 % of control | [15] 98 % of control | [17] 95 % of control

C1N2CN3CN1CN(C2)C3.[Cl][Pt][Cl]
inactive: dose: 25.0 mg/kg/injection, schedule: Q04DX003 (ip), vehicle: saline with Tween-80 123 % of control | dose: 50.0 mg/kg/injection, schedule: Q04DX003 (ip), vehicle: saline with Tween-80 101 % of control | [13] 98 % of control

COC(=O)c1cc2ccccc2[nH]c1=O
inactive: [18] 97 % of control | dose: 150.0 mg/kg/injection, schedule: Q01DX001 (ip), vehicle: other 96 % of control | dose: 300.0 mg/kg/injection, schedule: Q01DX001 (ip), vehicle: other 97 % of control

Cc1ccc(-c2[nH]c(=S)[nH]c(=O)c2CCO)cc1
inactive: [13] 91 % of control | [15] 97 % of control | [17] 93 % of control

CCOC(=O)C(Cc1ccccc1)C1=NC(C)(C)CC(C)O1 (stereo not drawn)
inactive: dose: 100.0 mg/kg/injection, schedule: Q04DX003 (ip), vehicle: acetone 102 % of control | dose: 200.0 mg/kg/injection, schedule: Q04DX003 (ip), vehicle: acetone 109 % of control | dose: 400.0 mg/kg/injection, schedule: Q04DX003 (ip), vehicle: acetone 97 % of control

CCCCCCCCCCCCCCCC(=O)Nc1c(C)cccc1C
inactive: [4] 100 % of control | [5] 91 % of control | [19] 95 % of control

O=C(O)c1c(Cl)cccc1Br
inactive: [4] 95 % of control | [5] 95 % of control | [19] 98 % of control

NNC(=O)c1nnc(NN)[nH]c1=O
inactive: dose: 100.0 mg/kg/injection, schedule: Q01DX001 (ip), vehicle: carboxymethylcellulose (CMC) 102 % of control | dose: 200.0 mg/kg/injection, schedule: Q01DX001 (ip), vehicle: carboxymethylcellulose (CMC) 100 % of control | dose: 400.0 mg/kg/injection, schedule: Q01DX001 (ip), vehicle: carboxymethylcellulose (CMC) 93 % of control

Cl/C=C(\Cl)CCl
inactive: dose: 25.0 mg/kg/injection, schedule: Q01DX009 (ip), vehicle: saline with Tween-80 91 % of control | [9] 96 % of control | [6] 94 % of control

COc1cccc2c1C(=O)c1c(O)c3c(c(O)c1C2=O)C[C@@](O)(C(=O)CN1CCN(C)CC1)C[C@@H]3OC1CC(N)C(O)C(C)O1 (stereo partly drawn)
inactive: dose: 6.25 mg/kg/injection, schedule: Q04DX003 (ip), vehicle: water 88 % of control | dose: 12.5 mg/kg/injection, schedule: Q04DX003 (ip), vehicle: water 90 % of control | dose: 25.0 mg/kg/injection, schedule: Q04DX003 (ip), vehicle: water 90 % of control | dose: 50.0 mg/kg/injection, schedule: Q04DX003 (ip), vehicle: water 91 % of control | dose: 100.0 mg/kg/injection, schedule: Q04DX003 (ip), vehicle: water 86 % of control

COC(=O)CC(OC)OC
inactive: [20] 103 % of control | [21] 94 % of control | [22] 92 % of control

O=P(O)(O)OCC(O)CCl (stereo not drawn)
inactive: [1] 96 % of control | [20] 100 % of control | [2] 92 % of control | [21] 91 % of control | [22] 103 % of control

CCOC(=O)Nc1cc(NC(c2ccc(Cl)cc2)c2ccc(Cl)cc2)c2[nH]cnc2n1
inactive: [18] 117 % of control

Cc1ccc2nc(-c3ccc(NC(=O)c4ccc(C(=O)Nc5ccc(-c6nc7ccc(C)cc7s6)cc5)cc4)cc3)sc2c1
inactive: [12] 89 % of control | [14] 89 % of control | [16] 86 % of control

O=C(CCc1ccc(C(=O)C[n+]2ccccc2)cc1)C[n+]1ccccc1
inactive: [10] 104 % of control | [11] 101 % of control | dose: 2.0 mg/kg/injection, schedule: Q04DX003 (ip), vehicle: saline 95 % of control

CC1OC(C)(C)OC1C(=O)O (stereo not drawn)
inactive: dose: 25.0 mg/kg/injection, schedule: Q01DX009 (ip), vehicle: Klucel (hydroxypropylcellulose) (HPC) 92 % of control | dose: 50.0 mg/kg/injection, schedule: Q01DX009 (ip), vehicle: Klucel (hydroxypropylcellulose) (HPC) 86 % of control

CCCCCCCN(CCCCCCC)CC(OC(C)=O)c1cc2ccccc2c2cc(Br)ccc12 (stereo not drawn)
inactive: [13] 98 % of control | [15] 101 % of control | [17] 104 % of control

COc1cc(C(C)=O)cc([N+](=O)[O-])c1O
inactive: [9] 102 % of control | [6] 91 % of control

COc1ccc(CCOS(=O)(=O)c2ccc(C)cc2)cc1
inactive: [23] 103 % of control | dose: 200.0 mg/kg/injection, schedule: Q01DX001 (ip), vehicle: saline with Tween-80 101 % of control | dose: 400.0 mg/kg/injection, schedule: Q01DX001 (ip), vehicle: saline with Tween-80 101 % of control

C(=N\N=C\c1ccco1)/c1ccco1
inactive: dose: 25.0 mg/kg/injection, schedule: Q01DX001 (ip), vehicle: saline with Tween-80 87 % of control | dose: 50.0 mg/kg/injection, schedule: Q01DX001 (ip), vehicle: saline with Tween-80 97 % of control | [23] 100 % of control | [13] 97 % of control | [15] 101 % of control

Cc1csc2nc[nH]c(=O)c12
inactive: [6] 97 % of control | [7] 98 % of control | [8] 105 % of control
